Consider eight compounds from patent US20230312577A1, “DUAL KINASE-BROMODOMAIN INHIBITORS” (MONASH UNIVERSITY, priority 2020, published 2023).

The test system of one test is OPM2 cells. The test can be described thus: Cell proliferation assay (ViaLight, cellular ATP). The settings on record: Homo sapiens, OPM-2, 120 h, 5 days, 5 μM to 1 nM. It is filed as cell-based. The gist of the method: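 1×10^3 cells per well exposed to compounds at final 5 μM to 1 nM for 5 days. Viability read as cellular ATP by ViaLight luminescence, technical triplicates. GI50 computed from the dose–response.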

The next test concerns the target T1, PI3K.
T1 construct: PI3K Enzyme Activity Assay IC50 (nM); other: 10 μM ATP, 180 μM phosphatidyl inositol, 60 min
Nature of the test: PI3K enzyme activity assay (luminescence, ATP consumption, Kinase-Glo). It counts as biochemical. The following applies: 10 μM ATP, 180 μM phosphatidyl inositol, 60 min. The protocol: PI3K activity was determined using a luminescence assay measuring ATP consumption as described previously (J.-A. Pinson, Z. Zheng, M. S. Miller, D. K. Chalmers, I. G. Jennings, P. E. Thompson, L-Aminoacyl-triazine derivatives are isoform-selective PI3Kβ inhibitors that target nonconserved Asp862 of PI3Kb, ACS Med. Chem. Lett. 4 (2013) 206-210). PI3K enzyme activity was determined in 25 μl of 20 mM HEPES pH 7.5, 5 mM MgCl2 with 180 μM phosphatidyl inositol and 10 μMATP. After a 60 min incubation at room temperature the reaction was stopped by the addition of Kinase-Glo (Promega) followed by a further 15 min incubation. Luminescence was then read using a Fluostar plate reader (BMGLabtech).
Inhibitors were diluted in 20% (v/v) DMSO at the indicated concentrations in order to generate a concentration versus inhibition of enzyme activity curve which was then analysed using GraphPad Prism version 8.00 for Windows, (GraphPad Software, San Diego California USA) in order to calculate the IC50. Standard deviations for the calculated IC50's are within 25% of the mean.

Test [1] addresses GST-BRD4 (binding domain 1, amino acids 44-168) (Homo sapiens, UniProt O60885). The test can be described thus: Bromodomain binding assay (FRET). The settings on record: for IC50: BRD4 binding domain 1, tetracetylated histone 4 peptide. The protocol: Inhibition of bromodomain binding was measured using a FRET (fluorescence resonance energy transfer) based assay. […] In the presence of the two detection reagents, streptavidin D2 and anti-GST-Eu (CisBio) binding trig-gers a FRET signal detected by fluorescence at 665 nm as measured using a Pherastar reader (BMG Labtech). Data was analysed using GraphPad Prism version 8.00 for Windows, (GraphPad Software, San Diego California USA) in order to calculate the IC50. Standard deviations for the calculated IC50's are within 25% of the mean.

As to `CC(=O)N1c2ccc(-c3ccc(C(=O)N4CCN(C(=O)c5cn6cc(-c7cnc(N)nc7)nc(N7CCOCC7)c6n5)CC4)cc3)cc2CCC1C` (centres unmarked) [Cpd 001, 1-(6-(4-(4-(6-(2-Aminopyrimidin-5-yl)-8-morpholinoimidazo[1,2-a]pyrazine-2-carbonyl)piperazine-1-carbonyl)phenyl)-2-methyl-3,4-dihydroquinolin-1(2H)-yl)ethan-1-one], in the test with OPM2 cells, the GI50 was 100 to 500 nM. In addition, the 50% inhibitory concentration (IC50) (against PI3K; in test [1]) was over 500 nM each time.

In the test on OPM2 cells, `CC(=O)N1c2ccc(-c3ccc(CNC(=O)c4cn5cc(-c6cnc(N)nc6)nc(N6CCOCC6)c5n4)cc3)cc2CCC1C` (centres unmarked) [Cpd 002, N-(4-(1-Acetyl-2-methyl-1,2,3,4-tetrahydroquinolin-6-yl)benzyl)-6-(2-aminopyrimidin-5-yl)-8-morpholinoimidazo[1,2-a]pyrazine-2-carboxamide] showed a GI50 of at most 100 nM. Further, the IC50 against PI3K is at most 100 nM; in test [1], 100 to 500 nM.

In the test on OPM2 cells, `CC(=O)N1c2ccc(-c3ccc(CNC(=O)CNC(=O)c4cn5cc(-c6cnc(N)nc6)nc(N6CCOCC6)c5n4)cc3)cc2CCC1C` (centres unmarked) [Cpd 003, N-(2-((4-(1-Acetyl-2-methyl-1,2,3,4-tetrahydroquinolin-6-yl)benzyl)amino)-2-oxoethyl)-6-(2-aminopyrimidin-5-yl)-8-morpholinoimidazo[1,2-a]pyrazine-2-carboxamide] had a GI50 of 100 to 500 nM. The figures for the IC50 (against PI3K; in test [1]) were at most 100 nM and over 500 nM, respectively.

In the case of `CC(=O)N1c2ccc(-c3ccc(CN4CCN(C(=O)c5cn6cc(-c7cnc(N)nc7)nc(N7CCOCC7)c6n5)CC4)s3)cc2CCC1C` (centres unmarked) [Cpd 004, 1-(6-(5-((4-(6-(2-Aminopyrimidin-5-yl)-8-morpholinoimidazo[1,2-a]pyrazine-2-carbonyl)piperazin-1-yl)methyl)thiophen-2-yl)-2-methyl-3,4-dihydroquinolin-1(2H)-yl)ethan-1-one], the IC50 (against PI3K; in test [1]) was 100 to 500 nM throughout.

`CC(=O)N1c2ccc(-c3ccc(CNC(=O)c4cn5cc(-c6cnc(N)nc6)nc(N6CCOCC6)c5n4)s3)cc2CCC1C` (centres unmarked) [Cpd 005, N-((5-(1-Acetyl-2-methyl-1,2,3,4-tetrahydroquinolin-6-yl)thiophen-2-yl)methyl)-6-(2-aminopyrimidin-5-yl)-8-morpholinoimidazo[1,2-a]pyrazine-2-carboxamide]: in the test on OPM2 cells, the GI50 was at most 100 nM. Further, the IC50 against PI3K was at most 100 nM; in test [1] it was 100 to 500 nM.

Consider `CC(=O)N1c2ccc(-c3ccc(C(=O)CN4CCN(C(=O)c5cn6cc(-c7cnc(N)nc7)nc(N7CCOCC7)c6n5)CC4)cc3)cc2CCC1C` (centres unmarked) [Cpd 007, 1-(4-(1-acetyl-2-methyl-1,2,3,4-tetrahydroquinolin-6-yl)phenyl)-2-(4-(6-(2-aminopyrimidin-5-yl)-8-morpholinoimidazo[1,2-a]pyrazine-2-carbonyl)piperazin-1-yl)ethan-1-one], for which the IC50 against PI3K was at most 100 nM; in test [1] it was over 500 nM.

On to `CC(=O)N1c2ccc(-c3ccc(C(=O)CNC(=O)c4cn5cc(-c6cnc(N)nc6)nc(N6CCOCC6)c5n4)cc3)cc2CCC1C` (centres unmarked) [Cpd 008, N-(2-(4-(1-Acetyl-2-methyl-1,2,3,4-tetrahydroquinolin-6-yl)phenyl)-2-oxoethyl)-6-(2-aminopyrimidin-5-yl)-8-morpholinoimidazo[1,2-a]pyrazine-2-carboxamide], for which the IC50 at PI3K is at most 100 nM; in test [1] it was over 500 nM.

As for `CC(=O)N1c2ccc(-c3ccc(CNC(=O)c4cn5cc(-c6cnc(N)nc6)nc(N6CCNCC6)c5n4)cc3)cc2CC[C@@H]1C.Cl` [Cpd 035, (S)-N-(4-(1-acetyl-2-methyl-1,2,3,4-tetrahydroquinolin-6-yl)benzyl)-6-(2-aminopyrimidin-5-yl)-8-(piperazin-1-yl)imidazo[1,2-a]pyrazine-2-carboxamide hydrochloride], the GI50 with OPM2 cells was at most 100 nM. For the same compound, the “selectivity (BRD-4)” value in test [1] is recorded as “selective BRD-4 inhibitor”.

As usually defined, the GI50 is the concentration that inhibits growth by half. What is called IC50 is the concentration needed to halve the response being measured. Low readings indicate higher potency, high ones lower potency.
